The values that follow come from ChEMBL document CHEMBL2417538, “Antithrombotic effects of LB30870, a potent, orally active, selective and direct thrombin inhibitor, and pharmacokinetics of its prodrug” (Bioorg Med Chem Lett, 2013).

Each structure is given as a SMILES string. In brackets after ≈: the same amount, converted by molar mass.

For one data set, the target named is Plasminogen (Homo sapiens, UniProt P00747). As to the kind of experiment: Inhibition of human plasmin.
For another data set, the target named is Trypsin (Homo sapiens, UniProt P07477+P07478+P35030). Kind of data set: Inhibition of human trypsin. It is filed as protein assay.
Data set [1] concerns the target Tissue-type plasminogen activator (Homo sapiens, UniProt P00750). As to the kind of experiment: Inhibition of human t-PA.
Another data set concerns the target Coagulation factor X (Homo sapiens, UniProt P00742). Kind of data set: Inhibition of human factor 10a.
Data set [2] can be described thus: Dissociation constant, pKa of the compound by potentiometric titration. It is filed as physicochemical.
Data set [3] can be described thus: Distribution coefficient, log D of the compound at pH 7 by potentiometric titration. It is filed as physicochemical. Particulars: octanol/water.
The nature of data set [4]: Aqueous solubility of the compound at pH 7.4. It is filed as physicochemical. Particulars: aqueous solution.
The nature of data set [5]: Aqueous solubility of the compound at pH 6.3. It is filed as physicochemical. The settings on record: aqueous solution.
Data set [6] can be described thus: Aqueous solubility of the compound at pH 9.0. It is filed as physicochemical. Particulars: aqueous solution.
Data set [7] concerns Canis familiaris. Kind of data set: AUC in Beagle dog at 10 mg/kg, po assessed as LB30870. It is filed as ADME, organism-based, Canis lupus familiaris, Plasma. Further details: dose 10 mg/kg, route oral. The settings on record: in vivo.
The test system of data set [8] is Rattus norvegicus. Kind of data set: AUC in Sprague-Dawley rat at 30 mg/kg, po assessed as LB30887. The format is ADME, organism-based, Plasma. Also on record: dose 30 mg/kg, route oral. Particulars: in vivo.
Data set [9] has as its system Rattus norvegicus. Kind of data set: AUC in Sprague-Dawley rat at 30 mg/kg, po assessed as LB30870. Further details: dose 30 mg/kg, route oral. The settings on record: in vivo. It is filed as ADME, organism-based, Plasma.
The subject of data set [10] is Rattus norvegicus. Kind of data set: Oral bioavailability in Sprague-Dawley rat at 30 mg/kg assessed as LB30870. The format is ADME, organism-based. The settings on record: in vivo.
Data set [11] has as its system Canis familiaris. As to the kind of experiment: AUC in Beagle dog at 10 mg/kg, po assessed as LB30887. It is filed as ADME, organism-based, Canis lupus familiaris, Plasma. Also on record: dose 10 mg/kg, route oral. The settings on record: in vivo.
Data set [12] relates to Rattus norvegicus. Kind of data set: Cmax in Sprague-Dawley rat at 30 mg/kg, po assessed as LB30887. It is filed as ADME, organism-based. Also on record: dose 30 mg/kg, route oral. The settings on record: in vivo.
Data set [13] relates to Canis familiaris. Kind of data set: Cmax in Beagle dog at 10 mg/kg, po assessed as LB30887. Particulars: in vivo. Also on record: dose 10 mg/kg, route oral. It is filed as ADME, organism-based, Canis lupus familiaris.
For data set [14], the system named is Rattus norvegicus. As to the kind of experiment: Cmax in Sprague-Dawley rat at 30 mg/kg, po assessed as LB30870. The format is ADME, organism-based. Further details: dose 30 mg/kg, route oral. The settings on record: in vivo.
In data set [15] the test system is Canis familiaris. As to the kind of experiment: Cmax in Beagle dog at 10 mg/kg, po assessed as LB30870. The format is ADME, organism-based, Canis lupus familiaris. Also on record: dose 10 mg/kg, route oral. Particulars: in vivo.
The nature of data set [16]: Aqueous solubility of the compound at pH 3.04. It is filed as physicochemical. Particulars: aqueous solution.
Data set [17] concerns Canis familiaris. Kind of data set: Oral bioavailability in Beagle dog at 10 mg/kg assessed as LB30870. The format is ADME, organism-based, Canis lupus familiaris. Particulars: in vivo.
Data set [18] is described as follows: Aqueous solubility of the compound at pH 4.73. The format is physicochemical. The settings on record: aqueous solution.
The nature of data set [19]: Aqueous solubility of the compound at pH 6.96. It is filed as physicochemical. Particulars: aqueous solution.

Sequence of Coagulation factor X (P00742 41-179 limits assumed): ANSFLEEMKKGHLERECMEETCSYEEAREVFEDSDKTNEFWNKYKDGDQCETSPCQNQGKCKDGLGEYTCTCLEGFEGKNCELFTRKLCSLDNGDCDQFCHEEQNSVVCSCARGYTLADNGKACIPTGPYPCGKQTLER
Sequence of Coagulation factor X (P00742 235-488 limits assumed): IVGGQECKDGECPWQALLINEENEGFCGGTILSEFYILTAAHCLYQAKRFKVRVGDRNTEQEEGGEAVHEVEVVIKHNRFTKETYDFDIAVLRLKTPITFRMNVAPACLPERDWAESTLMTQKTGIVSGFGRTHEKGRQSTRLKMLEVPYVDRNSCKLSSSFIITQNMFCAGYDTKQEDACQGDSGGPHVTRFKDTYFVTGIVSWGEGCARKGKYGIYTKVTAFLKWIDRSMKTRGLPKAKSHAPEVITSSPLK
Sequence of Plasminogen (P00747 97-580 limits assumed): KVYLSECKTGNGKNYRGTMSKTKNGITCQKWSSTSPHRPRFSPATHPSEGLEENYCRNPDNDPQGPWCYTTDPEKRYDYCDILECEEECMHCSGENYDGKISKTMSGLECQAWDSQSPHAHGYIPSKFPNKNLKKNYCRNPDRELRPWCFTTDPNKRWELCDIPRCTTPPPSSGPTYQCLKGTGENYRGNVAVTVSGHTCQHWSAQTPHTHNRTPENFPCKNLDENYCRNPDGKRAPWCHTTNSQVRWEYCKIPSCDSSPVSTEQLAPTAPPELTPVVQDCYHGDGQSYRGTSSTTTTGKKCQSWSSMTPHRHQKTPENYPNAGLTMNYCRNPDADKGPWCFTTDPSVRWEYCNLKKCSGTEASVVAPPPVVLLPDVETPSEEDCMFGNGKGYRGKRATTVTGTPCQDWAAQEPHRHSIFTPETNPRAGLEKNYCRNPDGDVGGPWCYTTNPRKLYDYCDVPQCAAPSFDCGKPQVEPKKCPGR
Sequence of Plasminogen (P00747 581-810 limits assumed): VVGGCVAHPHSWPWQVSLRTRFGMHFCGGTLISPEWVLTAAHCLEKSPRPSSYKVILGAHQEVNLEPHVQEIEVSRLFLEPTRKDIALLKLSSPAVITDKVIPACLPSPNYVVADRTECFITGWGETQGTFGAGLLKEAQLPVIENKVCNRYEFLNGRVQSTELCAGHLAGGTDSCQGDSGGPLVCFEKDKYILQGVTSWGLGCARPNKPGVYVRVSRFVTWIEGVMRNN
Sequence of Tissue-type plasminogen activator (P00750 whole entry): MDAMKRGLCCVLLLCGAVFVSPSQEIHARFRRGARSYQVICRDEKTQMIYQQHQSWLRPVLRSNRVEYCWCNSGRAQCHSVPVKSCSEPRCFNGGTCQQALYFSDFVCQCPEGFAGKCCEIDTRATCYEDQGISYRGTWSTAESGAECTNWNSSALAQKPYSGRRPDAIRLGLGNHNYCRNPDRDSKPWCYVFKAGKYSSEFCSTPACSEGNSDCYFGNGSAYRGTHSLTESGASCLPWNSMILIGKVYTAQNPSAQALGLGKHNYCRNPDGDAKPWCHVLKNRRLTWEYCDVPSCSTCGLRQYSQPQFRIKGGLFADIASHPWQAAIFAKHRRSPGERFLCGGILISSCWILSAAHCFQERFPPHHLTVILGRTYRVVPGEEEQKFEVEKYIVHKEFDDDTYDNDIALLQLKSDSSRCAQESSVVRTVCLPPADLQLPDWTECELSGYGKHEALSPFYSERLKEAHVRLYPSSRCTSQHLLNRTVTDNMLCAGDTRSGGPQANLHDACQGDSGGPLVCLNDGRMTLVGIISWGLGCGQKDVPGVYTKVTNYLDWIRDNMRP

With `CC1CNc2c(cccc2S(=O)(=O)N[C@@H](CCCNC(=N)N)C(=O)N2CC[C@@H](C)C[C@@H]2C(=O)O)C1` (stereo not given in full) [ARGATROBAN], the Ki on Plasminogen is 257 µM; on Trypsin it was 1.99 µM; in [1] it was 87.8 µM; on Coagulation factor X it was 53 µM.

Take `CCOC(=O)CN[C@@H](C(=O)N1CC[C@H]1C(=O)NCc1ccc(/C(N)=N\O)cc1)C1CCCCC1` [XIMELAGATRAN]: the pKa in data set [2] amounted to 4.73. In data set [3], this compound displayed a logD of 0.41.

Regarding `CCCCCCOC(=O)NC(=N)c1ccc(NCc2nc3cc(C(=O)N(CCC(=O)OCC)c4ccccn4)ccc3n2C)cc1` [DABIGATRAN ETEXILATE], the solubility in data set [4] stood at 0.4 µg/mL (≈ 0.637 µM); in data set [5], 2.3 µg/mL (≈ 3.66 µM); in data set [6] it was 0.3 µg/mL (≈ 0.478 µM). In data set [3], this compound had a pH-dependent lipophilicity (logD) of 3.7.

Consider `CCOC(=O)CN[C@H](C(=O)N1CCC[C@H]1C(=O)NCc1ccc(/C(N)=N/O)s1)C(c1ccccc1)c1ccccc1`, for which the AUC in the data set with Canis familiaris [7] amounted to 491 µg·min/mL; in the data set with Rattus norvegicus [8], 203 µg·min/mL; in the data set on Rattus norvegicus [9], 38 µg·min/mL; in the data set on Canis familiaris [11], 100 µg·min/mL. For the same compound, in [2], the pKa is 3.98. For the same compound, the F is recorded as 13% with Rattus norvegicus [10] and 35% in the data set on Canis familiaris [17]. The highest concentration (Cmax) in the data set with Rattus norvegicus [12] stood at 1740 ng/mL; in the data set with Canis familiaris [13], 2100 ng/mL; in the data set on Rattus norvegicus [14], 440 ng/mL; in the data set on Canis familiaris [15] it was 3700 ng/mL. For the same compound, the solubility is 550 µg/mL (≈ 952 µM) in [16], 10 µg/mL (≈ 17.3 µM) in [18] and under 10 µg/mL in [19]. The compound also gave a log distribution coefficient (logD) in data set [3] of 1.74.
